We go through 15 compounds from patent publication US11459339B2, “Biaryl derivative, preparation method thereof and pharmaceutical application thereof” (Abbisko Therapeutics Co., Ltd., priority 2018, dated 2022).

Data set [1] deals with interaction between PD-1 and PD-L1 (Homo sapiens (Human), UniProt Q9NZQ7). Briefly: PD1-PDL1 HTRF binding activity test (Cisbio PD-1/PD-L1 binding assay kit). On the technique in general: Time-resolved FRET reads energy transfer from a long-lived donor to a nearby acceptor.
Data set [2] has as its target interaction between PD-1 and PD-L1 expressed on cell surfaces (Homo sapiens (Human), UniProt Q9NZQ7). Briefly: Jurkat reporter gene cellular assay (Jurkat/NF-κB-luc/PD1 cells cocultured with Raji-PD-L1 cells, OKT-3 stimulation). The class given is cell-based. Put shortly: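 Jurkat cells stably expressing human PD-1 and NF-κB-luciferase were cocultured with Raji cells stably expressing human PD-L1 under OKT-3 stimulation, with compound present. Luminescence was read after 6 h.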
In general terms: In a reporter assay the amount or activity of a reporter protein is the signal.

A short description of data set [3]: Pharmacokinetic assay in mice, per oral administration. The conditions noted are these: ICR mice. The class given is in vivo. An excerpt:
C. Pharmacokinetic Assay in Mice
The purpose of this study was to study the pharmacokinetic behaviors of some compounds of the present invention, and administration routes were: per oral administration (PO) to ICR mice:
The compounds used in this test came from the compounds of the specific examples of the present invention.
ICR mice male N=3 original source: Shanghai Sippr-BK Laboratory Animal Co. Ltd.
2.3 Preparation and Administration of Medicaments
The compounds were weighed, and dissolved in solvent of 0.5% SDS+0.5% CMCNa. The mixture solutions were mixed well by shaking and ultrasonic treatment to obtain colorless clear solutions. The solutions were orally administered to nine mice after an overnight fast. The dosage of administration was 10 mg/kg (or 30 mg/kg).
With about 90 μL/time point, blood was drawn from the submaxillary vein, and heparin sodium was added for anticoagulation. The blood samples were placed onto the ice, and were centrifuged (centrifugation conditions: 8000 r/min, 6 min, 2-8° C.) within 1 hr to obtain plasmas. The time points for blood sampling were at 0 hr, 0.25 hr, 0.5 hr, 1 hr, 2 hrs, 4 hrs, 6 hrs, 8 hrs and 24 hrs after administration. The samples were stored in a refrigerator at −20° C.
40 μL of plasma sample was added to 160 μL of cold acetonitrile containing an internal standard, and the mixture solution was vortexed for 3 min and centrifuged at 11,000 r/min for 5 min. 100 μL of supernate was taken and added to 100 μL of water, and 5 μL of the sample was taken and analyzed by LC/MS/MS. Only the original compounds were analyzed for examples 1, 3, 5, 8, 46 and 141 (for results, see table 2); and both the original compounds and possible products of ester hydrolysis, namely example 2, 27, 65 and 105, were analyzed for examples 4, 26, 64 and 104 (for results, see table 3).

[4] abbreviates: male, mouse, plasma, PO 10 mg/kg, original compound analyzed.
The mark [5] stands for this setting: male, mouse, plasma, PO 10 mg/kg, original compound analyzed, class symbol.
[6] abbreviates: male, mouse, PO 10 mg/kg, plasma, original compound analyzed, class symbol, read-out: Cmax.
Where [7] appears, read: read-out: PD1-PDL1 HTRF Binding Activity IC50.
The mark [8] stands for this setting: NF-κB-luc reporter activation fold, 6 hrs, read-out: Cell Activity EC50.
Where [9] appears, read: male, mouse, plasma, PO 30 mg/kg, original compound (ester) analyzed.
Setting [10] is: male, mouse, plasma, PO 30 mg/kg, original compound (ester) analyzed, class symbol.
[11] abbreviates: male, mouse, plasma, PO 30 mg/kg, original compound (ester) analyzed, class symbol, read-out: Cmax.

Molecules are shown by their SMILES. Like-named read-outs stand apart in the source and are kept apart here.

interaction between PD-1 and PD-L1 expressed on cell surfaces, sequence (Q9NZQ7 19-290): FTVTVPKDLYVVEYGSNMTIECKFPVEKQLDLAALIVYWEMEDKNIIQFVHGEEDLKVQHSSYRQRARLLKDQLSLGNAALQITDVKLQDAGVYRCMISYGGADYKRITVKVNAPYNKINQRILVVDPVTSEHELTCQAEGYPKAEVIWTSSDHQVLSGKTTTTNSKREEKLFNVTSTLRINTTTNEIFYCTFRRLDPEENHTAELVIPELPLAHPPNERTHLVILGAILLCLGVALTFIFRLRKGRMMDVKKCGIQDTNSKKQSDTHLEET
interaction between PD-1 and PD-L1, sequence (Q9NZQ7 19-238): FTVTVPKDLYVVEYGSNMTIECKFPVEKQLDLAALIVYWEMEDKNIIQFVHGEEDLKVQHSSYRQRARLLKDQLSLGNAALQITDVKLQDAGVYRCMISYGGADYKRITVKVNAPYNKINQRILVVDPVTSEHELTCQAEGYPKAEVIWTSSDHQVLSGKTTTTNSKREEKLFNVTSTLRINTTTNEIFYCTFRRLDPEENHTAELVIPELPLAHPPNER

With `Cc1c(NC(=O)c2ccc(CNCCO)cn2)cccc1-c1cccc(NC(=O)c2ccc(CNCCO)cn2)c1C` [Example 1, N,N′-(2,2′-dimethyl-[1,1′-biphenyl]-3,3′-diyl)bis(5-(((2-hydroxyethyl)amino)methyl)picolinamide)], the IC50 in data set [1] turned out to be 0.17 nM. The EC50 in data set [2] was found to be 137 nM. Also, in data set [3] (setting [4]), the MRT amounted to 3.3 h, the Tmax turned out to be 1 h and the half-life is 2.4 h. In data set [3] (setting [5]), this compound yielded an AUC(0-t) of at most 500 ng·h/mL. Moreover, the Cmax in data set [3] (setting [6]) is at most 100 ng/mL.

Consider `COc1cc(C(=O)Nc2cccc(-c3cccc(NC(=O)c4cc(OC)c(CNCCO)cn4)c3C)c2C)ncc1CNCCO` [Example 3, N,N′-(2,2′-dimethyl-[1,1′-biphenyl]-3,3′-diyl)bis(5-(((2-hydroxyethyl)amino)methyl)-4-methoxypicolinamide)], for which the 50% inhibitory concentration (IC50) in data set [1] (setting [7]) was 0.2 nM. Moreover, the concentration for a half-maximal effect (EC50) in data set [2] (setting [8]) is 37 nM. For the same compound, in data set [3] (setting [4]), the mean residence time (MRT) turned out to be 16.7 h, the Tmax was 0.5 h and the half-life is 12.9 h. The AUC(0-t) in data set [3] (setting [5]) was above 2000 ng·h/mL. Besides, the Cmax in data set [3] (setting [6]) is 100 to 500 ng/mL.

`COC(=O)[C@@H](CO)NCc1cnc(C(=O)Nc2cccc(-c3cccc(NC(=O)c4cc(OC)c(CN[C@H](CO)C(=O)OC)cn4)c3C)c2C)cc1OC` [Example 4, dimethyl 2,2′-((((((2,2′-dimethyl-[1,1′-biphenyl]-3,3′-diyl)bis(azanediyl))bis(carbonyl))bis(4-methoxypyridine-6,3-diyl))bis(methylene))bis(azanediyl))(2R,2′R)-bis(3-hydroxypropanoate)]: the IC50 in data set [1] (setting [7]) is 0.064 nM. For the same compound, the half-maximal effective concentration (EC50) in data set [2] (setting [8]) is 1340 nM. In addition, in data set [3] (PO 30 mg/kg, original compound (ester) analyzed), the highest concentration (Cmax) entry is “BQL”. In data set [3], the “ester hydrolysis in the bodies of the mice after oral administration” value (shortened to “ester hydrolysis in the bodies”) is on record as “rapidly became corresponding acids”.

In the case of `Cc1cc(C(=O)Nc2cccc(-c3cccc(NC(=O)c4cc(C)c(CNCCO)cn4)c3C)c2C)ncc1CNCCO` [Example 5, N,N′-(2,2′-dimethyl-[1,1′-biphenyl]-3,3′-diyl)bis(5-(((2-hydroxyethyl)amino)methyl)-4-methylpicolinamide)], the IC50 in data set [1] (setting [7]) turned out to be 0.36 nM. The EC50 in data set [2] (setting [8]) came out at 64 nM. In addition, in data set [3] (setting [4]), the exposure AUC(0-t) was determined as 1680 ng·h/mL, the MRT was 10.2 h, the Tmax worked out at 2 h and the half-life was 8.3 h. Also, the Cmax in data set [3] (setting [6]) was in the range of 100 to 500 ng/mL.

With `Cc1cc(C(=O)Nc2cccc(-c3cccc(NC(=O)c4cc(C)c(CNC(CO)CO)cn4)c3C)c2C)ncc1CNC(CO)CO` [Example 8, N,N′-(2,2′-dimethyl-[1,1′-biphenyl]-3,3′-diy)bis(5-(((1,3-dihydroxypropan-2-yl)amino)methyl)-4-methylpicolinamide)], the IC50 in data set [1] (setting [7]) is 0.41 nM. In addition, the EC50 in data set [2] (setting [8]) was 186 nM. Also, in data set [3] (setting [4]), the MRT turned out to be 5.4 h, the Tmax was 2 h and the half-life was 3 h. Further, the AUC(0-t) in data set [3] (setting [5]) lay in the range of 500 to 2000 ng·h/mL. Further, the Cmax in data set [3] (male, mouse, PO 10 mg/kg, plasma, original compound analyzed, read-out: Cmax) is 319 ng/mL.

For the compound `COC(=O)[C@@H]1CCCCN1Cc1cnc(C(=O)Nc2cccc(-c3cccc(NC(=O)c4cc(C)c(CN5CCCC[C@H]5C(=O)OC)cn4)c3C)c2C)cc1C` [Example 26, dimethyl 1,1′-(((((2,2′-dimethyl-[1,1′-biphenyl]-3,3′-diyl)bis (azanediyl))bis(carbonyl))bis (4-methylpyridine-6,3-diyl))bis(methylene))(2S,2′S)-bis (piperidine-2-carboxylate)], the IC50 in data set [1] (setting [7]) is 65.3 nM. Moreover, in data set [3] (setting [9]), the MRT was 7 h, the Tmax is 6 h and the half-life was 3.6 h. Also, in data set [3] (setting [10]), the AUC(0-t) is above 2000 ng·h/mL. Besides, in data set [3] (setting [11]), the Cmax was above 500 ng/mL. Moreover, in data set [3], the “ester hydrolysis in the bodies” value is listed as “no product of ester hydrolysis was detected”.

As to `Cc1cc(C(=O)Nc2cccc(-c3cccc(NC(=O)c4cc(C)c(CN5CCCC[C@H]5C(=O)O)cn4)c3C)c2C)ncc1CN1CCCC[C@H]1C(=O)O` [Example 27, (2S,2′S)-1,1′-(((((2,2′-dimethyl-[1,1′-biphenyl]-3,3′-diyl)bis(azanediyl))bis(carbonyl))bis(4-methylpyridine-6,3-diyl))bis (methylene))bis(piperidine-2-carboxylic acid)], the IC50 in data set [1] (setting [7]) worked out at 0.28 nM. For the same compound, the EC50 in data set [2] (setting [8]) was 128 nM. The Cmax entry in data set [3] (product of ester hydrolysis analyzed after PO 30 mg/kg of the ester (2 after 4, 27 after 26, 65 after 64)) is recorded as “BQL”.

Consider `COc1cc(C(=O)Nc2cccc(-c3cccc(NC(=O)c4cc(OC)c(CN5CC(C)(O)C5)cn4)c3C)c2C)ncc1CN1CC(C)(O)C1` [Example 46, N,N'-(2,2′-dimethyl-[1,1′-biphenyl]-3,3′-diyl)bis(5-((3-hydroxy-3-methylazetidin-1-yl)methyl)-4-methoxypicolinamide)], for which, in data set [1] (setting [7]), the IC50 was 0.25 nM. Besides, the EC50 in data set [2] (setting [8]) turned out to be 64 nM. For the same compound, in data set [3] (setting [4]), the MRT came to 15.5 h, the Tmax came out at 4 h and the half-life was 10.7 h. In data set [3] (setting [5]), this compound yielded an AUC(0-t) of 500 to 2000 ng·h/mL. The Cmax in data set [3] (setting [6]) is at most 100 ng/mL.

Take `COC(=O)[C@@H]1CCCCN1Cc1cnc(C(=O)Nc2cccc(-c3cccc(NC(=O)c4cc(OC)c(CN5CCCC[C@H]5C(=O)OC)cn4)c3C)c2C)cc1OC` [Example 64]: the IC50 in data set [1] (setting [7]) stood at 10.7 nM. In addition, the half-maximal effective concentration (EC50) in data set [2] (setting [8]) turned out to be 1860 nM. Further, in data set [3] (setting [9]), the MRT amounted to 4.6 h, the Tmax turned out to be 2 h and the half-life is 3.7 h. The compound also displayed an AUC(0-t) in data set [3] (setting [10]) above 2000 ng·h/mL. Besides, in data set [3] (setting [11]), the Cmax was above 500 ng/mL. Moreover, the “ester hydrolysis in the bodies” value in data set [3] was “no product of ester hydrolysis was detected”.

As to `Cc1c(NC(=O)c2cc(C3CC3)c(CNC[C@@H](O)CC(=O)O)cn2)cccc1-c1cccc(NC(=O)c2cc(C3CC3)c(CNC[C@@H](O)CC(=O)O)cn2)c1C` [Example 136, (3S,3′S)-4,4′-((((((2,2′-dimethyl-[1,1′-biphenyl]-3,3′-diyl)bis(azanediyl))bis (carbonyl))bis(4-cyclopropylpyridine-6,3-diyl))bis(methylene))bis(azanediyl)) bis(3-hydroxybutanoic acid)], in data set [1] (setting [7]), the IC50 came to 0.32 nM. The EC50 in data set [2] (setting [8]) was found to be 27.4 nM.

Turning to `Cc1c(NC(=O)c2cc(C3CC3)c(CNC[C@@H]3CCC(=O)N3)cn2)cccc1-c1cccc(NC(=O)c2cc(C3CC3)c(CNC[C@@H]3CCC(=O)N3)cn2)c1C` [Example 137, N,N′-(2,2′-dimethyl-[1,1′-biplienyl]-3,3′-diyl)bis(4-cyclopropyl-5-(((((S)-5-oxopyrrolidin-2-yl)methyl)amino)methyl)picolinamide)], in data set [1] (setting [7]), the IC50 came out at 2.07 nM. In addition, in data set [2] (setting [8]), the EC50 stood at 108 nM.

With `Cc1c(NC(=O)c2cc(C3CC3)c(CNCCF)cn2)cccc1-c1cccc(NC(=O)c2cc(C3CC3)c(CNCCF)cn2)c1C` [Example 138, N,N′-(2,2′-dimethyl-[1,1′-biphenyl]-3,3′-diyl)bis(4-cyclopropyl-5-(((2-fluoroethyl)amino)methyl)picolinamide)], the IC50 in data set [1] (setting [7]) came out at 5.03 nM. Further, in data set [2] (setting [8]), the EC50 was found to be 581 nM.

Take `Cc1c(NC(=O)c2cc(C3CC3)c(CNCC(F)F)cn2)cccc1-c1cccc(NC(=O)c2cc(C3CC3)c(CNCC(F)F)cn2)c1C` [Example 139, N,N′-(2,2′-dimethyl-[1,1′-biphenyl]-3,3′-diyl)bis(4-cyclopropyl-5-(((2,2-difluoroethyl)amino)methyl)picolinamide)]: the IC50 in data set [1] (setting [7]) is 120 nM. The EC50 in data set [2] (setting [8]) was above 10000 nM.

With `Cc1c(NC(=O)c2cc(C3CC3)c(CNCC(F)(F)F)cn2)cccc1-c1cccc(NC(=O)c2cc(C3CC3)c(CNCC(F)(F)F)cn2)c1C` [Example 140, N,N′-(2,2′-dimethyl-[1,1′-biphenyl]-3,3′-diyl)bis(4-cyclopropyl-5-(((2,2,2-trifluoroethyl)amino)methyl)picolinamide)], the IC50 in data set [1] (setting [7]) turned out to be 15.1 nM. Also, the EC50 in data set [2] (setting [8]) stood at 2710 nM.

Regarding `Cc1cc(C(=O)Nc2cccc(-c3ccccc3)c2C)ncc1CNCCO` [Positive compound, reference compound], the IC50 in data set [1] (setting [7]) came to 2.4 nM. Moreover, the EC50 in data set [2] (setting [8]) is above 10000 nM.

What is called IC50 is the concentration that inhibits the measured activity by half. The EC50 is the midpoint of the concentration-response curve. As a reminder, the MRT is a mean duration of stay, worked out from the concentration-time curve. A word on the Tmax: it is the time at which the peak concentration occurs. The term half-life denotes how long it takes for the measured level to halve. A low value points to fast loss. For orientation: AUC(0-t) means exposure summed from dosing to a finite time, without extrapolation to infinity. A word on the Cmax: it is the peak of the concentration-time curve.
